Results taken from patent publication US6451832B2, “Benzimidazoles with antithrombotic activity” (Boehringer Ingelheim Pharma KG, priority 1999, dated 2002).

Assays:
[1] = Oral resorption of prodrugs
human citrated plasma = assay: Prolongation of the aPTT time in human citrated plasma (Biomatic B10 coagulometer); type: biochemical; conditions: concentration at which the aPTT time is doubled compared with the control, 37° C.
Description: were investigated as follows for their effects on prolonging the aPTT time:
Materials: plasma, from human citrated blood. PTT reagent, Boehringer Mannheim (524298), Calcium solution (0.025 mol/l), Behring Werke, Marburg (ORH 056/57), Diethylbarbiturate acetate buffer, Behring Werke, Marburg (ORWH 60/61), Biomatic B10 coagulometer, Desaga, Wiesloch.
The aPTT time was determined using a Biomatic B10 coagulometer made by Messrs. Desaga.
The test substance was placed in the test tubes prescribed by the manufacturer together with 0.1 ml of human citrated plasma and 0.1 ml of PTT reagent. The mixture was incubated for three minutes at 37° C. The clotting reaction was started by the addition of 0.1 ml of calcium solution. The time is measured using the apparatus from the addition of the calcium solution up to the clotting of the mixture. Mixtures to which 0.1 ml of DBA buffer were added were used as the controls.
According to the definition, a dosage-activity curve was used to determine the effective concentration of the substance, i.e. the concentration at which the aPTT time is doubled compared with the control.

| SMILES | oral resorption [1] | aPTT time (ED200 in μM) (human citrated plasma) [µM] |
| --- | --- | --- |
| CCCOC(=O)CN[C@@](C)(C(=O)N1CCCC1)c1ccc2c(c1)nc(CNc1ccc(C(=N)NC(=O)c3ccccc3)cc1)n2C [3(2), (R)-2-[4-(N-phenylcarbonylamidino)-phenylaminomethyl]-1-methyl-5-[1-(n-propyloxycarbonylmethylamino)-1-(pyrrolidinocarbonyl)-ethyl]-benzimidazole] | good oral resorption | – |
| CCOC(=O)CNC(C)(C(=O)N1CC=CC1)c1ccc2c(c1)nc(CNc1ccc(C(=N)N)cc1)n2C.Cl.Cl (centres unmarked) [A, 2-(4-amidinophenylaminomethyl)-1-methyl-5-[1-(ethoxycarbonylmethylamino)-1-(2,5-dihydropyrrolocarbonyl)-ethyl]-benzimidazole-dihydrochloride] | – | 0.13 |
| C[C@@H]1CCCN1C(=O)[C@](C)(NCC(=O)O)c1ccc2c(c1)nc(CNc1ccc(C(=N)N)cc1)n2C.Cl.Cl [B, (R)-2-(4-amidinophenylaminomethyl)-1-methyl-5-[1-(carboxymethylamino)-1-[(R,S)-2-methyl-pyrrolidinocarbonyl]-ethyl]-benzimidazole-dihydrochloride] | – | 0.12 |
| Cl.Cl.Cn1c(CNc2ccc(C(=N)N)cc2)nc2cc(C(C)(NCC(=O)O)C(=O)N3CC=CC3)ccc21 (centres unmarked) [C, 2-(4-amidinophenylaminomethyl)-1-methyl-5-[1-(carboxymethylamino)-1-(2,5-dihydropyrrolocarbonyl)-ethyl]-benzimidazole-dihydrochloride] | – | 0.22 |
| CCCCOC(=O)CN[C@@](C)(C(=O)N1CCCC1)c1ccc2c(c1)nc(CNc1ccc(C(=N)NC(=O)c3ccccc3)cc1)n2C [Example 2, (R)-2-[4-(N-phenylcarbonylamidino)-phenylaminomethyl]-1-methyl-5-[1-(n-butyloxycarbonylmethylamino)-1-(pyrrolidinocarbonyl)-ethyl]-benzimidazole] | good oral resorption | – |
